# Measurements: patent US20250154193A1, “STEROID COMPOUND, AND PREPARATION METHOD THEREFOR AND APPLICATION THEREOF” (CHOLESGEN (SHANGHAI) CO., LTD., priority 2022, published 2025)
# Assays:
# [1] = test system: Ldlr−/− mice; experiment: Sudan IV staining of atherosclerotic plaques of the aortic tree; format: in vivo; details: AMLN diet, intragastrically once a day, 8 weeks, vs control group
# Description: After the administration experiment in mice, the aorta was isolated and fixed in 4% PFA. Perivascular adipose tissues were removed with ophthalmic forceps under a stereo microscope, stained with Sudan IV, and atherosclerotic plaques were washed in 70% ethanol. After staining, the aortic tree was imaged using a ZEISS Axio Zoom.V16 stereo microscope. Atherosclerotic lesions were quantified using ImageJ software.
# AMLN-fed Ldlr^−/− mice also served as a common model for atherosclerosis, allowing simultaneous study of both fatty liver and atherosclerosis. Male Ldlr^−/− mice at 8 weeks of age were fed with AMLN diet and intragastrically administered once a day for a total of 8 weeks. After the mice were euthanized, the aorta was isolated and fixed in 4% paraformaldehyde. Perivascular adipose tissues were removed under a stereo microscope, stained with Sudan IV, and rinsed with 70% ethanol. The aortic tree was imaged using a stereo microscope (Axio Zoom.V16, ZEISS, Germany). Atherosclerotic plaques were quantified using ImageJ software.
# [2] = Liver microsomal metabolic stability assay; format: in vitro ADME; details: rat liver microsomes, NADPH, 37° C., 0-60 minutes; read-out: Rat microsomal metabolic half-life (t1/2)
# Experimental: PBS solution (100 mM), MgCl2 solution (100 mM), and NADPH solution (20 mM) were prepared respectively. Compound and testosterone (positive control) stock solutions were then prepared with dimethyl sulfoxide (DMSO), diluted to 100 µM with methanol for sample incubation, and stored at −10 to −30° C. 12.5 μL of rat liver microsomes (purchased from XenoTech, Cat. No.: R1000, Lot No.: 1310030, specification: 20 mg/mL), 432.5 µL of PBS solution (100 mM), 25 µL of NADPH solution (20 mM), and 25 μL of MgCl2 solution (100 mM) were added to a 96-well plate, mixed well, and pre-incubated at 37° C. for 5 minutes. 5 µL of substrate (test compound) solution was added to start the reaction. At specified time points of 0, 5, 15, 30, 45, and 60 minutes (0 and 60 minutes for the negative control group), 50 µL of the incubated samples were added to a stop plate containing 100 µL of ice-cold stop solution, vortexed for 1 minute to inactivate the reaction, and stored at −60 to −90° C. for subsequent analysis. Sample analysis of the test compound and the control compound testosterone was performed using LC-MS/MS method. Chromatographic peaks were integrated, calculated, and processed using Analyst software. Semi-quantitative analysis was performed for both the test compound and the control compound testosterone by calculating peak area ratios.
# [3] = test system: Ldlr−/− mice; experiment: AMLN diet-induced fatty liver model: liver tissue section analysis; format: in vivo; details: 30 mg/kg/day, 8 weeks
# Experimental: Hematoxylin-eosin staining: The extracted liver was fixed in 4% paraformaldehyde at 4° C., embedded in paraffin, sectioned using a paraffin microtome (Leica RM2235) with a section thickness of […], dewaxed, rehydrated, and stained with Hematoxylin-eosin staining kits ([…]. 6,765,001, 6,766,010, Thermo Scientific). The images were captured with an Olympus VS 120 glass microscope, and quantified using ImageJ software. Oil Red 0 staining: The liver was embedded in OCT embedding medium (Leica), sectioned to a thickness of 7 μm using a cryostat microtome (Leica CM1950), stained with Oil Red 0 (00625, Sigma). The images were captured with an Olympus VS 120 glass microscope, and quantified using ImageJ software. Sirius Red collagen staining: Liver paraffin sections were dewaxed, rehydrated, and stained with Sirius Red staining kit (ab150681, Abcam) according to the manufacturer's instructions. Immunofluorescence staining: The liver was embedded in OCT embedding medium (Leica) and sectioned to a thickness of 7 μm using a cryostat microtome (Leica CM1950). Cryostat sections were stained with anti-F4/80 rat monoclonal antibody (14-4801-85, Invitrogen, 1:100) and Alexa Fluor 488-conjugated goat anti-rat IgG secondary antibody (A-11006, Invitrogen, 1:500), and the nuclei were specifically stained with DAPI (Sigma) 30. After staining and sealing, the images were captured using a spinning disk confocal microscope (Nikon CSU-W1 SoRa), and quantified using ImageJ software. Polarized light imaging of cholesterol crystals: Cryostat sections were stained with F4/80 and DAPI. The images were captured using a spinning disk confocal microscope (Nikon CSU-W1 SoRa) equipped with a polarized light filter, and quantified using ImageJ software. Male C57BL/6J mice and male Ldlr^−/− mice (TOO1464, Jiangsu GemPharmatech Co., Ltd.) at 8 weeks of age were purchased, grouped, fed with different diets, and treated with different drugs. The mice were randomly divided into 4 groups with 8 to 9 mice in each group: One group consisted of C57BL/6J wild-type mice, which was the chow diet (CD) vehicle control group. The other three groups consisted of Ldlr^−/− knockout mice, including chow diet (CD) vehicle control group, AMLN diet (containing […], 22% fructose, and 2% cholesterol) vehicle control group, and AMLN diet combined with 25-hydroxylanosterol administration group (25-hydroxylano sterol was administered at a concentration of 30 mg/kg/day). The mice in four groups were intragastrically administered once a day, during which the changes in food intake and body weight of the mice in different treatment groups were counted. After 8 weeks, blood and liver samples were collected from the mice to analyze blood lipids, liver lipids, and liver damage phenotypes. Furthermore, we performed various staining or immunohistochemical procedures on liver tissue sections from the mice in each group to analyze the phenotypic changes in hepatic lipid accumulation and fatty liver. […] FIGS. 14 to 18 show the results of Oil Red O staining and quantification of liver sections of mice: 25-hydroxylanosterol reduced lipid droplets in the liver. FIGS. 19 to 23 show the results of Sirius Red staining and quantification of liver sections of mice: 25-hydroxylanosterol reduced fibrosis in the liver. FIGS. 24 to 29 show the results of F4/80 immunostaining and quantification of liver sections of mice as well as the results of imaging and quantification of polarized light imaging indicating cholesterol crystals: 25-hydroxylanosterol reduced the aggregation of Kupffer cells and formation of cholesterol crystals in the liver. In FIGS. 9 to 29, quantitative analysis was performed using ImageJ software, and data are represented as mean±standard deviation. P values were calculated using one-way ANOVA; * indicates P<0.05; ** indicates P<0.01; *** indicates P<0.001.
smiles,measurement,setting,value
"C[C@H](CCCC(C)(C)O)[C@H]1CC[C@@]2(C)C3=C(CC[C@]12C)[C@@]1(C)CC[C@H](O)C(C)(C)[C@@H]1CC3 [compound 68, (1R,3aR,5aR,7S,9aS,11aR)-1-[(2R)-6-hydroxy-6-methylheptan-2-yl]-3a,6,6,9a,11a-pentamethyl-2,3,3a,4,5,5a,6,7,8,9,9a,10,11,11a-tetradecahydro-1H-cyclopenta[1,2-a]phenanthren-7-ol]",formation and quantity of atherosclerotic plaques (Sudan IV staining of aortic tree),[1],significantly reduced
same,half-life at 1 µM,[2],8.36 min
same,crown-like structure formed by Kupffer cells (F4/80 immunostaining),[3],significantly reduced
same,fibrotic phenotype of collagen fiber formation in liver sections (Sirius Red),[3],significantly reduced
same,number of cholesterol crystals in liver sections (polarized light imaging),[3],significantly reduced
same,accumulation of lipid droplets of neutral lipids in the liver (Oil Red O staining),[3]; vs control group,significantly reduced
same,macrovesicular lipid droplets and vesicular degenerated hepatocytes in the liver (HE staining),[3]; vs control group,significantly reduced
same,NAFLD activity scores,[3]; HE staining of liver sections,significantly reduced
